For experiment [1], the target named is WBA II. It is filed as binding. To be noted: read-out: KD [μmol]; cited from earlier work.
Experiment [2] has as its target Cholera toxin B subunit (CTB). It is filed as binding. To be noted: read-out: KD [μmol]; cited from earlier work.
Experiment [3] deals with Jacalin. The experiment in a line: Literature thermodynamic binding data of lectin-carbohydrate interactions compiled in Table S6 for comparison; conditions not given. Further details: method as in values quoted from other papers. The note with it: read-out: KD [μmol]; cited from earlier work.
Experiment [4] has as its target T1, N91A (Coprinopsis cinerea, UniProt B3GA02, N91A).
T1 construct: gene ccl2
The experiment can be described thus: biochemical. It counts as binding.

The target of experiment [5] is T2, Y92A (Coprinopsis cinerea, UniProt B3GA02, Y92A).
T2 construct: gene ccl2
The experiment can be described thus: biochemical. It counts as binding.

The target of experiment [6] is T3, Y57A (Coprinopsis cinerea, UniProt B3GA02, Y57A).
T3 construct: gene ccl2
The experiment in a line: biochemical. It counts as binding.

The target in experiment [7] is T4, W78A (Coprinopsis cinerea, UniProt B3GA02, W78A).
T4 construct: gene ccl2
The experiment can be described thus: biochemical. It counts as binding.

Experiment [8] has as its target T5, L87A (Coprinopsis cinerea, UniProt B3GA02, L87A).
T5 construct: gene ccl2
The experiment in a line: biochemical. It counts as binding.

The target of experiment [9] is T6, W94A (Coprinopsis cinerea, UniProt B3GA02, W94A).
T6 construct: gene ccl2
The experiment can be described thus: biochemical. It counts as binding.

Experiment [10] concerns the target T7, V93A (Coprinopsis cinerea, UniProt B3GA02, V93A).
T7 construct: gene ccl2
The experiment in a line: biochemical. It is filed as binding.

The target of experiment [11] is T8, K109A (Coprinopsis cinerea, UniProt B3GA02, K109A).
T8 construct: gene ccl2
The experiment in a line: biochemical. It counts as binding.

In experiment [12] the target is T9, N90A (Coprinopsis cinerea, UniProt B3GA02, N90A).
T9 construct: gene ccl2
The experiment in a line: biochemical. It is filed as binding.

Experiment [13] has as its target ConA. The experiment can be described thus: Literature thermodynamic binding data of lectin-carbohydrate interactions compiled in Table S6 for comparison; conditions not given. Further details: method as in values quoted from other papers. The note with it: read-out: KD [μmol]; cited from earlier work.
The test system of experiment [14] is D. melanogaster. The experiment can be described thus: Biotoxicity assay with purified protein added to the rearing medium. It is filed as in vivo, Drosophila melanogaster.
Experiment [15] deals with A. aegypti larvae. The experiment can be described thus: Biotoxicity assay with recombinant E. coli. To be noted: CCL2-expressing E. coli vs vector control. It counts as in vivo, Aedes aegypti.
Experiment [16] has as its system C. elegans bre-1(ye4). The experiment in a line: C. elegans liquid toxicity assay, feeding on recombinant E. coli. It is filed as in vivo, Caenorhabditis elegans. The note with it: bre-1(ye4) mutant, vs vector control.
In experiment [17] the test system is C. elegans fut-6(ok475)fut-1(ok892). Described as above. It counts as in vivo, Caenorhabditis elegans. To be noted: fut-6(ok475)fut-1(ok892) double mutant, vs vector control.
Experiment [18] relates to A. castellanii. The experiment can be described thus: Biotoxicity assay with recombinant E. coli. It is filed as in vivo, Acanthamoeba castellanii. The note with it: CCL2-expressing E. coli vs vector control.
Experiment [19] has as its system C. elegans fut-1(ok892). The experiment in a line: CCL2 nematotoxicity assay in solid media. It is filed as in vivo, Caenorhabditis elegans.
For experiment [20], the system named is C. elegans fut-1(ok892). The experiment can be described thus: C. elegans liquid toxicity assay, feeding on recombinant E. coli. It counts as in vivo, Caenorhabditis elegans. To be noted: fut-1(ok892) mutant.
For experiment [21], the system named is C. elegans wildtype (N2). The description is as above. It counts as in vivo, Caenorhabditis elegans.
Experiment [22] is described as follows: Isothermal titration calorimetry, CCL2 wild type and variants binding to fucosylated chitobiose. As to the method:
ITC experiments were performed on a VP-ITC instrument (MicroCal). The calorimeter was calibrated according to the manufacturer's instructions. Protein and carbohydrate samples were dialyzed against NMR buffer at room temperature using a 3.5 kDa membrane (Spectra/Por) and Micro DispoDialyzer (100 Da cutoff; Harvard Apparatus), respectively. The disaccharide Fucα1,3GlcNAc-OMe was not dialyzed but dissolved in NMR buffer. The sample cell (1.4 mL) was loaded with 70 µM protein; carbohydrate concentration in the syringe was 2–4 mM. A titration experiment typically consisted of 30–50 injections, each of 3 µL volume and 6 s duration, with a 6.7 min interval between additions. Stirring rate was 307 rpm. Raw data were integrated, corrected for nonspecific heats, normalized for the molar concentration, and analyzed according to a 1∶1 binding model.
In general terms: ITC needs no label: the signal is the heat of the interaction.

The mark [23] stands for this setting: purified CCL2, relative to the control (BSA).
[24] abbreviates: ITC, 299K, protein binding to GlcNAcβ1,4[Fucα1,3]GlcNAcβ1-sp.
The mark [25] stands for this setting: ITC, 299K, protein binding to GlcNAcβ1,4[Fucα1,3]GlcNAcβ1-sp, listed as Wild type.
Setting [26] is: Table S6, ligand GlcNAc1,4[Fuc1,3]GlcNAc-O-spacer, This study.

T9 sequence (B3GA02 2-142 N90A limits assumed): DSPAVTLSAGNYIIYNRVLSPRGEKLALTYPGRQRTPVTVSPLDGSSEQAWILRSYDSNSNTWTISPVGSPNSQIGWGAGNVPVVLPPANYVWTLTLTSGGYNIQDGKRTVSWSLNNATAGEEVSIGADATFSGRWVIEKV
T3 sequence (B3GA02 2-142 Y57A limits assumed): as the sequence (B3GA02 2-142 N90A limits assumed) above, with Y56A, A89N counted along it
T8 sequence (B3GA02 2-142 K109A limits assumed): as the sequence (B3GA02 2-142 N90A limits assumed) above, with A89N, K108A counted along it
T7 sequence (B3GA02 2-142 V93A limits assumed): as the sequence (B3GA02 2-142 N90A limits assumed) above, with A89N, V92A counted along it
T5 sequence (B3GA02 2-142 L87A limits assumed): as the sequence (B3GA02 2-142 N90A limits assumed) above, with L86A, A89N counted along it
T2 sequence (B3GA02 2-142 Y92A limits assumed): as the sequence (B3GA02 2-142 N90A limits assumed) above, with A89N, Y91A counted along it
T1 sequence (B3GA02 2-142 N91A limits assumed): as the sequence (B3GA02 2-142 N90A limits assumed) above, with A89N, N90A counted along it
T6 sequence (B3GA02 2-142 W94A limits assumed): as the sequence (B3GA02 2-142 N90A limits assumed) above, with A89N, W93A counted along it
T4 sequence (B3GA02 2-142 W78A limits assumed): as the sequence (B3GA02 2-142 N90A limits assumed) above, with W77A, A89N counted along it

As for `CO[C@@H]1O[C@H](CO)[C@@H](O[C@@H]2O[C@H](CO)[C@H](O)[C@H](O)[C@H]2O[C@@H]2O[C@@H](C)[C@@H](O)[C@@H](O)[C@@H]2O)[C@H](O)[C@H]1NC(C)=O` [Fuc1,2Gal1,4GlcNAcOMe, Fucα1,2Galβ1,4GlcNAc methyl glycoside], the Kd in experiment [1] was 3.2 µM.
Consider `CC(=O)N[C@H]1[C@H](O[C@@H]2[C@H](O[C@]3(C(=O)O)C[C@H](O)[C@@H](NC(C)=O)[C@H]([C@H](O)[C@H](O)CO)O3)[C@@H](O)[C@H](O[C@H]3[C@H](O)[C@@H](O)C(O)O[C@@H]3CO)O[C@@H]2CO)O[C@H](CO)[C@H](O)[C@@H]1O[C@@H]1O[C@H](CO)[C@H](O)[C@H](O)[C@H]1O` (stereo partly drawn) [GM1os, GM1 ganglioside oligosaccharide], for which, in experiment [2], the Kd is 43 nM.
For `CO[C@H]1O[C@H](CO)[C@H](O)[C@H](O)[C@H]1O` [GalOMe, methyl galactopyranoside], in experiment [3], the Kd was 58 µM.
Consider `CC(=O)N[C@H]1[C@H](O[C@H]2[C@H](O[C@@H]3O[C@@H](C)[C@@H](O)[C@@H](O)[C@@H]3O)[C@@H](NC(C)=O)[C@H](OCCCCCC(=O)O)O[C@@H]2CO)O[C@H](CO)[C@@H](O)[C@@H]1O` [GlcNAcβ1,4[Fucα1,3]GlcNAcβ1-sp, fucosylated chitobiose, GlcNAcβ1,4[Fucα1,3]GlcNAcβ-O(CH2)5COOH], for which the Kd in [4] is 180 nM; in experiment [5], over 500 µM; in experiment [6], 10.9 µM; in experiment [7], 62.9 µM; in experiment [8], 26.3 µM; in experiment [9], 310 µM. Also, the Kd in [10] was determined as 27.2 µM; in experiment [11] it was 1500 nM; in [12] it was 6.7 µM.
On to `CO[C@H]1O[C@H](CO[C@H]2O[C@H](CO)[C@@H](O)[C@H](O)[C@@H]2O)[C@@H](O)[C@H](O[C@H]2O[C@H](CO)[C@@H](O)[C@H](O)[C@@H]2O)[C@@H]1O` [Man1,6[Man1,3]ManOMe, Manα1,6[Manα1,3]Man methyl glycoside], for which the Kd in experiment [13] is 2000 nM.
In the case of “CCL2: novel fruiting body lectin from the ink cap mushroom Coprinopsis cinerea, recombinant, monomeric β-trefoil”, the “development of pupae and flies vs control” value in experiment [14] (purified CCL2, BSA control) is given as “significantly different from the control”. Further, in experiment [14] (setting [23]), the “delay in development of flies” value amounted to 10 fold and the “delay in development of pupae” value came to 4 fold. In experiment [15], the toxicity result is “No significant differences”. Moreover, the “susceptibility to CCL2-mediated toxicity” value in [16] is “not and completely resistant”. Also, the “susceptibility to CCL2-mediated toxicity” value in experiment [17] is “not and completely resistant”. The toxicity result in [18] is “No significant differences”. For the same compound, in experiment [19], the “additional time required to reach L4” value is given as “at least 24 h” and the “resistance to CCL2” value is given as “partial resistance”. For the same compound, the “larvae reaching L4 stage” value in experiment [20] (after 48 hours) was “half”. Also, the “susceptibility to CCL2-mediated toxicity” value in [20] (vs vector control) was “partially resistant”. Also, the “reduction of development of L1 larvae” value in experiment [21] (30% of CCL2-expressing E. coli among the fed bacteria) was “more than 95%”. The “toxicity: development of L1 larvae vs vector control” value in [21] (N2 fed E. coli expressing the lectin, L4 stage after 48 h) is listed as “stopped the development of all wildtype (N2) L1 larvae”. Further, in experiment [22] (setting [24]), the Kd was 1400 nM, the ΔH is -50 kJ/mol and the “−TΔS” value is given as 16 kJ/mol. In [22] (setting [25]), the ΔH is -49.8 kJ/mol and the “−TΔS” value is recorded as 16.3 kJ/mol. In addition, in experiment [22] (setting [26]), the “–TΔS” value is 16.3 kJ/mol and the “–ΔH” value came to 49.8 kJ/mol.

Broadly, the Kd is the concentration at which binding is half-saturated.

The values are drawn from publication PMC3355094 (PLoS Pathogens, 2012).
